In PubChem BioAssay (NCI):
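Each compound was tested at five concentrations against cells in 96-well plates for 48 hours. GI50 is the concentration that inhibits growth by half. TGI denotes the concentration required for complete inhibition of growth.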

Legend:
Test in all cases: DTP human tumour cell line panel, 48 h
SK-MEL-28 melanoma = system: SK-MEL-28 melanoma
IGROV1 ovarian = system: IGROV1 ovarian
UO-31 renal = system: UO-31 renal
HCC-2998 colon = system: HCC-2998 colon
ACHN renal = system: ACHN renal
OVCAR-8 ovarian = system: OVCAR-8 ovarian
HCT-15 colon = system: HCT-15 colon
BT-549 breast = system: BT-549 breast
RXF 393 renal = system: RXF 393 renal
SK-MEL-2 melanoma = system: SK-MEL-2 melanoma
HOP-92 NSCLC = system: HOP-92 NSCLC
786-0 renal = system: 786-0 renal
SNB-75 CNS = system: SNB-75 CNS
HCT-116 colon = system: HCT-116 colon
NCI-H522 lung = system: NCI-H522 lung
A549 NSCLC = system: A549 NSCLC
NCI-H226 lung = system: NCI-H226 lung
U251 CNS = system: U251 CNS
SF-295 CNS = system: SF-295 CNS
MOLT-4 leukemia = system: MOLT-4 leukemia
SNB-19 CNS = system: SNB-19 CNS
SF-539 CNS = system: SF-539 CNS
COLO 205 colon = system: COLO 205 colon
PC-3 prostate = system: PC-3 prostate
HOP-62 NSCLC = system: HOP-62 NSCLC
RPMI-8226 leukemia = system: RPMI-8226 leukemia
OVCAR-5 ovarian = system: OVCAR-5 ovarian
MALME-3M melanoma = system: MALME-3M melanoma
NCI-H460 lung = system: NCI-H460 lung
MDA-MB-231 breast = system: MDA-MB-231 breast
TK-10 renal = system: TK-10 renal
T-47D breast = system: T-47D breast
M14 melanoma = system: M14 melanoma
EKVX NSCLC = system: EKVX NSCLC
LOX IMVI melanoma = system: LOX IMVI melanoma
UACC-257 melanoma = system: UACC-257 melanoma
MDA-MB-435 = system: MDA-MB-435
DU-145 prostate = system: DU-145 prostate
MCF7 breast = system: MCF7 breast
OVCAR-3 ovarian = system: OVCAR-3 ovarian
HS 578T breast = system: HS 578T breast
SK-MEL-5 melanoma = system: SK-MEL-5 melanoma
MDA-N = system: MDA-N
NCI/ADR-RES ovarian = system: NCI/ADR-RES ovarian
OVCAR-4 ovarian = system: OVCAR-4 ovarian
CAKI-1 renal = system: CAKI-1 renal
A498 renal = system: A498 renal
UACC-62 melanoma = system: UACC-62 melanoma
HT29 colon = system: HT29 colon
CCRF-CEM leukemia = system: CCRF-CEM leukemia
SR leukemia = system: SR leukemia
KM12 colon = system: KM12 colon
HL-60(TB) leukemia = system: HL-60(TB) leukemia
SN12C renal = system: SN12C renal
SW-620 colon = system: SW-620 colon
SK-OV-3 ovarian = system: SK-OV-3 ovarian
NCI-H23 lung = system: NCI-H23 lung
SF-268 CNS = system: SF-268 CNS
K-562 leukemia = system: K-562 leukemia

Structure (SMILES): CC[C@@]1(O)C(=O)OCc2c1cc1n(c2=O)Cc2c-1nc1cc3c(cc1c2CCl)OCO3
- GI50 (SK-MEL-28 melanoma): 2330 nM
- TGI (SK-MEL-28 melanoma): 18.9 µM
- GI50 (IGROV1 ovarian): 139 nM
- TGI (IGROV1 ovarian): 5.75 µM
- GI50 (UO-31 renal): < 10 nM
- TGI (UO-31 renal): 0.756 µM
- GI50 (HCC-2998 colon): 365 nM
- TGI (HCC-2998 colon): 8.58 µM
- GI50 (ACHN renal): < 10 nM
- TGI (ACHN renal): 0.0322 µM
- GI50 (OVCAR-8 ovarian): < 10 nM
- TGI (OVCAR-8 ovarian): 602 nM
- GI50 (HCT-15 colon): 192 nM
- TGI (HCT-15 colon): 12.3 µM
- GI50 (BT-549 breast): 106 nM
- TGI (BT-549 breast): 3.99 µM
- GI50 (RXF 393 renal): < 13.8 nM
- TGI (RXF 393 renal): 1.21 µM
- GI50 (SK-MEL-2 melanoma): 206 nM
- TGI (SK-MEL-2 melanoma): 1.22 µM
- GI50 (HOP-92 NSCLC): < 10 nM
- TGI (HOP-92 NSCLC): 0.466 µM
- GI50 (786-0 renal): < 10 nM
- TGI (786-0 renal): 238 nM
- GI50 (SNB-75 CNS): < 10 nM
- TGI (SNB-75 CNS): 2.08 µM
- GI50 (HCT-116 colon): < 10 nM
- TGI (HCT-116 colon): 0.294 µM
- GI50 (NCI-H522 lung): < 10 nM
- TGI (NCI-H522 lung): 1.36 µM
- GI50 (A549 NSCLC): < 10 nM
- TGI (A549 NSCLC): 3.25 µM
- GI50 (NCI-H226 lung): < 10 nM
- TGI (NCI-H226 lung): 1.3 µM
- GI50 (U251 CNS): < 10 nM
- TGI (U251 CNS): 1900 nM
- GI50 (SF-295 CNS): < 10 nM
- TGI (SF-295 CNS): 0.0252 µM
- GI50 (MOLT-4 leukemia): < 10 nM
- TGI (MOLT-4 leukemia): < 0.038 µM
- GI50 (SNB-19 CNS): < 18 nM
- TGI (SNB-19 CNS): > 100 µM
- GI50 (SF-539 CNS): < 10 nM
- TGI (SF-539 CNS): < 0.0135 µM
- GI50 (COLO 205 colon): 1150 nM
- TGI (COLO 205 colon): 3.4 µM
- GI50 (PC-3 prostate): 39.2 nM
- TGI (PC-3 prostate): > 36.4 µM
- GI50 (HOP-62 NSCLC): < 10 nM
- TGI (HOP-62 NSCLC): < 0.0479 µM
- GI50 (RPMI-8226 leukemia): < 10 nM
- TGI (RPMI-8226 leukemia): 0.309 µM
- GI50 (OVCAR-5 ovarian): 59.3 nM
- TGI (OVCAR-5 ovarian): 2.12 µM
- GI50 (MALME-3M melanoma): 62.9 nM
- TGI (MALME-3M melanoma): 2 µM
- GI50 (NCI-H460 lung): < 10 nM
- TGI (NCI-H460 lung): < 0.0318 µM
- GI50 (MDA-MB-231 breast): 1380 nM
- TGI (MDA-MB-231 breast): 20.7 µM
- GI50 (TK-10 renal): 292 nM
- TGI (TK-10 renal): 11.1 µM
- GI50 (T-47D breast): < 10 nM
- TGI (T-47D breast): > 71.9 µM
- GI50 (M14 melanoma): 32 nM
- TGI (M14 melanoma): 0.403 µM
- GI50 (EKVX NSCLC): 994 nM
- TGI (EKVX NSCLC): > 44.6 µM
- GI50 (LOX IMVI melanoma): < 10 nM
- TGI (LOX IMVI melanoma): 0.426 µM
- GI50 (UACC-257 melanoma): < 44.6 nM
- TGI (UACC-257 melanoma): 1.59 µM
- GI50 (MDA-MB-435): 59.2 nM
- TGI (MDA-MB-435): 2.24 µM
- GI50 (DU-145 prostate): < 10 nM
- GI50 (MCF7 breast): < 10 nM
- TGI (MCF7 breast): > 100 µM
- GI50 (OVCAR-3 ovarian): 333 nM
- TGI (OVCAR-3 ovarian): 3.07 µM
- GI50 (HS 578T breast): 1290 nM
- TGI (HS 578T breast): > 54.1 µM
- GI50 (SK-MEL-5 melanoma): < 10 nM
- TGI (SK-MEL-5 melanoma): 1.13 µM
- GI50 (MDA-N): < 10 nM
- TGI (MDA-N): 1.63 µM
- GI50 (NCI/ADR-RES ovarian): < 10 nM
- TGI (NCI/ADR-RES ovarian): 0.133 µM
- GI50 (OVCAR-4 ovarian): 693 nM
- TGI (OVCAR-4 ovarian): 11.6 µM
- GI50 (CAKI-1 renal): < 10 nM
- TGI (CAKI-1 renal): 0.477 µM
- GI50 (A498 renal): < 15.1 nM
- TGI (A498 renal): 0.753 µM
- GI50 (UACC-62 melanoma): < 10 nM
- TGI (UACC-62 melanoma): 0.205 µM
- GI50 (HT29 colon): 27.1 nM
- TGI (HT29 colon): > 22.3 µM
- GI50 (CCRF-CEM leukemia): < 10 nM
- GI50 (SR leukemia): < 10 nM
- GI50 (KM12 colon): 181 nM
- TGI (KM12 colon): 1.88 µM
- GI50 (HL-60(TB) leukemia): < 10 nM
- GI50 (SN12C renal): < 10 nM
- TGI (SN12C renal): 367 nM
- GI50 (SW-620 colon): < 13.6 nM
- GI50 (SK-OV-3 ovarian): < 10 nM
- TGI (SK-OV-3 ovarian): 1.07 µM
- GI50 (NCI-H23 lung): < 10 nM
- TGI (NCI-H23 lung): < 0.0153 µM
- GI50 (SF-268 CNS): < 10 nM
- TGI (SF-268 CNS): 4.62 µM

Structure (SMILES): CCOC(=O)C(NC(=O)CC(C)C)(N1CCN(c2cc3c(cc2F)c(=O)c(C(=O)O)cn3C2CC2)CC1)C(F)(F)F (stereo not given)
- TGI (SK-MEL-28 melanoma): 55.5 µM
- TGI (IGROV1 ovarian): 37.6 µM
- TGI (UO-31 renal): 49.6 µM
- TGI (HCC-2998 colon): 28.4 µM
- TGI (ACHN renal): 34.6 µM
- TGI (OVCAR-8 ovarian): > 100000 nM
- TGI (HCT-15 colon): 22.3 µM
- TGI (BT-549 breast): 39.1 µM
- TGI (RXF 393 renal): 35.8 µM
- TGI (SK-MEL-2 melanoma): 53.3 µM
- TGI (HOP-92 NSCLC): 25.3 µM
- TGI (786-0 renal): > 100000 nM
- TGI (SNB-75 CNS): 64.5 µM
- TGI (HCT-116 colon): 56.2 µM
- TGI (NCI-H522 lung): 11.9 µM
- TGI (A549 NSCLC): > 100 µM
- TGI (NCI-H226 lung): 46.3 µM
- TGI (U251 CNS): > 100000 nM
- TGI (SF-295 CNS): 61.5 µM
- TGI (MOLT-4 leukemia): 40.2 µM
- TGI (SNB-19 CNS): > 100 µM
- TGI (SF-539 CNS): 34.7 µM
- TGI (COLO 205 colon): 30.3 µM
- TGI (PC-3 prostate): 63.7 µM
- TGI (HOP-62 NSCLC): > 100 µM
- TGI (RPMI-8226 leukemia): 78.6 µM
- TGI (OVCAR-5 ovarian): 32.8 µM
- TGI (MALME-3M melanoma): 31.7 µM
- TGI (NCI-H460 lung): > 100 µM
- TGI (MDA-MB-231 breast): 46.1 µM
- TGI (TK-10 renal): 72.9 µM
- TGI (T-47D breast): 86.7 µM
- TGI (M14 melanoma): 47.5 µM
- TGI (EKVX NSCLC): 92.8 µM
- TGI (LOX IMVI melanoma): 35.5 µM
- TGI (UACC-257 melanoma): 57 µM
- TGI (MDA-MB-435): 56.5 µM
- TGI (DU-145 prostate): > 100 µM
- TGI (MCF7 breast): 68.4 µM
- TGI (K-562 leukemia): 42 µM
- TGI (OVCAR-3 ovarian): 66.7 µM
- TGI (HS 578T breast): 57.8 µM
- TGI (SK-MEL-5 melanoma): 25.4 µM
- TGI (MDA-N): 52.3 µM
- TGI (NCI/ADR-RES ovarian): 52.2 µM
- TGI (OVCAR-4 ovarian): 68 µM
- TGI (CAKI-1 renal): 74.5 µM
- TGI (A498 renal): 16.8 µM
- TGI (UACC-62 melanoma): 30.2 µM
- TGI (HT29 colon): 91.6 µM
- TGI (CCRF-CEM leukemia): 14 µM
- TGI (SR leukemia): 45.8 µM
- TGI (KM12 colon): 39.4 µM
- TGI (HL-60(TB) leukemia): 26 µM
- TGI (SN12C renal): > 100000 nM
- TGI (SW-620 colon): 74.1 µM
- TGI (SK-OV-3 ovarian): 65.8 µM
- TGI (NCI-H23 lung): 33.5 µM
- TGI (SF-268 CNS): 40.8 µM
